The source made the active and inactive calls. No cut-off for these calls is given here. *1 amine or outer side, *2 acyl side, *3 side chain or, on linkers, in order; H or OH if unused. Where a SMILES comes first, the peptide text is derived from it. [ ]: non-standard residue; d: D form. X1 = CC(C)C[C@@H](C(=S)N[C@H](C(=O)[*:2])C(C)C)N(C)[*:1]; AlaΨ(CSNH)dAla = C[C@H](N[*:1])C(=S)N[C@H](C)C(=O)[*:2]; MeBmt = C/C=C/C[C@@H](C)[C@@H](O)[C@H](NC)C(=O)O; NMeL = CN[C@@H](CC(C)C)C(=O)O; NMeV = CN[C@H](C(=O)O)C(C)C; Abu = CC[C@H](N)C(=O)O; Sar = CNCC(=O)O
Tests used:
[1] = target: T1, Peptidyl-prolyl cis-trans isomerase A (Homo sapiens, UniProt P62937); assay: Binding affinity to recombinant His-tagged Cyp18 (unknown origin) expressed in Escherichia coli BL21(DE3) assessed as blue shift by UV absorbance method
Target sequence in this assay (P62937 whole entry, looked up): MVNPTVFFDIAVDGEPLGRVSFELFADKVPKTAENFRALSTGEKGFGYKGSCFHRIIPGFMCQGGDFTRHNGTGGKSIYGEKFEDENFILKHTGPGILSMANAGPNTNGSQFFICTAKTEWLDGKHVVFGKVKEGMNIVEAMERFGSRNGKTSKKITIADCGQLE

[2] = target: T1, Peptidyl-prolyl cis-trans isomerase A; assay: Inhibition of recombinant His-tagged Cyp18 (unknown origin) expressed in Escherichia coli BL21(DE3) up to 1000 nM
Target sequence in this assay (P62937 whole entry, looked up): as above

[3] = target: T1, Peptidyl-prolyl cis-trans isomerase A; assay: Binding affinity to recombinant His-tagged Cyp18 (unknown origin) expressed in Escherichia coli BL21(DE3) assessed as inhibition of recombinant human His6-tagged calcineurin alpha phosphatase actvity using RII phosphopeptide as substrate by measuring amount of free phosphate at 10 uM preincubated for 20 mins followed by substrate addition measured after 30 mins in presence of human calmodulin by malachite green dye-based spectrophotometry relative to control
Target sequence in this assay (P62937 whole entry, looked up): as above

[4] = target: T1, Peptidyl-prolyl cis-trans isomerase A; assay: Binding affinity to recombinant His-tagged Cyp18 (unknown origin) expressed in Escherichia coli BL21(DE3) by fluorescence analysis
Target sequence in this assay (P62937 whole entry, looked up): as above

[5] = target: T1, Peptidyl-prolyl cis-trans isomerase A; assay: Binding affinity to Cyp18 (unknown origin) assessed as association rate constant of fast phase by stopped flow method
Target sequence in this assay (P62937 whole entry, looked up): as above

[6] = target: T1, Peptidyl-prolyl cis-trans isomerase A; assay: Binding affinity to recombinant His-tagged Cyp18 (unknown origin) expressed in Escherichia coli BL21(DE3) assessed as dissociation rate constant in presence of 20-fold excess of cyclosporin A by fluorescence assay
Target sequence in this assay (P62937 whole entry, looked up): as above

[7] = target: T1, Peptidyl-prolyl cis-trans isomerase A; assay: Binding affinity to Cyp18 (unknown origin) by fluorescence assay
Target sequence in this assay (P62937 whole entry): as the sequence (P62937 whole entry, looked up) above

| Compound | Activity [1] | inhibition [2] | Activity [3] | Activity [4] | K [5] [×10⁶ /M/s] | K [6] [×10⁻² /s] | Kd [7] [nM] |
| --- | --- | --- | --- | --- | --- | --- | --- |
| C/C=C/C[C@@H](C)[C@@H](O)[C@H]1C(=O)N[C@@H](CC)C(=O)N(C)CC(=O)N(C)[C@@H](CC(C)C)C(=S)N[C@@H](C(C)C)C(=O)N(C)[C@@H](CC(C)C)C(=O)N[C@@H](C)C(=O)N[C@H](C)C(=O)N(C)[C@@H](CC(C)C)C(=O)N(C)[C@@H](CC(C)C)C(=O)N(C)[C@@H](C(C)C)C(=O)N1C | Active | Active | Active | Active |  |  |  |
| C/C=C/C[C@@H](C)[C@@H](O)[C@H]1C(=O)N[C@@H](CC)C(=O)N(C)CC(=O)N(C)[C@@H](CC(C)C)C(=O)N[C@@H](C(C)C)C(=O)N(C)[C@@H](CC(C)C)C(=O)N[C@@H](C)C(=S)N[C@H](C)C(=O)N(C)[C@@H](CC(C)C)C(=O)N(C)[C@@H](CC(C)C)C(=O)N(C)[C@@H](C(C)C)C(=O)N1C (HELM PEPTIDE1{[Abu].[Sar].[meL].V.[meL].[C[C@H](N[*:1])C(=S)N[C@H](C)C(=O)[*:2]].[meL].[meL].[meV].[C/C=C/C[C@@H](C)[C@@H](O)[C@@H](C(=O)[*:2])N(C)[*:1]]}$PEPTIDE1,PEPTIDE1,1:R1-10:R2$$$V2.0) | Active | Active | Active | Active | 8.34 | 6.32 | 8.2 |
| C/C=C/C[C@@H](C)[C@@H](O)[C@H]1C(=O)N[C@@H](CC)C(=O)N(C)CC(=O)N(C)[C@@H](CC(C)C)C(=S)N[C@@H](C(C)C)C(=O)N(C)[C@@H](CC(C)C)C(=O)N[C@@H](C)C(=S)N[C@H](C)C(=O)N(C)[C@@H](CC(C)C)C(=O)N(C)[C@@H](CC(C)C)C(=O)N(C)[C@@H](C(C)C)C(=O)N1C (cyclo([Abu][Sar][X1][NMeL][AlaΨ(CSNH)dAla][NMeL][NMeL][NMeV][MeBmt])) | Active | Active | Active | Active |  |  |  |
